Source: US11440880B2, “Thalidomide analogs and methods of use” (The USA, as represented by the Secretary, Department of …, priority 2015, dated 2022)

Assays:
[1] = tested on: mpo:GFP zebrafish embryos (neutrophil migration to the wound site); experiment: mpo:GFP zebrafish fin-clip neutrophil migration (inflammation) assay; assay type: in vivo; parameters: mpo:GFP inflammation n (survived/tested): concentration or dose not given beside the values; details: for minimal effective concentration: Danio rerio, Neutrophil, lowest concentration producing an effect, compounds not producing an effect shown at the highest evaluated concentration; for mpo:GFP inflammation n (survived/tested): embryos survived/tested at the concentration given
From the text: (§1) Zebrafish embryology: The use of zebrafish embryo (Danio rerio) bioassays as a preclinical model in the classification of novel compounds has increased in recent years due to several factors including; low cost, ease of maintenance, speed of embryonic development, transparency of the embryos and genetic conservation between zebrafish and humans (Howe et al., Nature 2013; 496:498; Therapontos et al., PNAS 2009, 106:8573; Mahony et al., PNAS 2013, 110:12703; Beedie et al., Oncotarget 2016, 7(22):33237; Beedie et al., Mol. Cancer Ther. 2015, 14(10):2228). Two established zebrafish reporter lines were used—the fli1:EGFP line, where the fli1 promoter drives expression of enhanced green fluorescent protein within the developing vasculature (Lawson et al., 2002), and the Tg(mpo::EGFP) line (also known as mpo:GFP), which expresses green fluorescent protein via the neutrophil specific myeloperoxidase promoter (Renshaw et al., Blood 2006, 108:3976). The use of these zebrafish transgenic reporter lines allows for the identification of potential anti-angiogenic and anti-inflammatory compounds respectively, and both have been used previously to successfully classify the action of thalidomide analogs (Therapontos et al., 2009; Mahony et al., 2013; Beedie et al., Oncotarget 2016, 7(22):33237; Beedie et al., Mol. Cancer Ther. 2015, 14(10):2228). Zebrafish embryos were treated with analogs as previously described (Mahony et al., 2013). Briefly, fli1:EGFP embryos were collected and embryos were allowed to develop for 24 hours. Embryos were dechorionated manually and exposed to test compounds or vehicle control for a further 24 hours, imaged and analyzed for intersegmental vessel (ISV) growth. At 24 hours post fertilisation (hpf) the ISVs were ideal to study to visualize and analyze the actions of compounds on angiogenesis. At this time point ISVs were rapidly forming beneath the developing head, over the body and had yet to form in the tail (Lawson and Weinstein, Developmental Biology 2002, 248:307; Therapontos and Vargesson, Developmental Dynamics 2010, 239:2761). Additionally, these sprouts would go on to form the bilateral dorsal longitudinal anastomotic vessels. By treating before this fusion and formation occurs, the effect of each compound on the individual vessels as well as overall patterning structural integrity (Isogai et al., Development 2003, 130:5281) could be determined. Tg(mpo::EGFP) were tail fin clipped as previously detailed (Renshaw et al., 2006; Mahony et al., 2013; Beedie et al., Oncotarget 2016, 7(22):33237; Beedie et al., Mol. Cancer Ther. 2015, 14(10):2228) and incubated with test compounds or vehicle control at 72 hours post fertilization. Fish were imaged at 24 hours and the number of migratory neutrophils present at the wound site were counted. Compounds inducing an at least 50% reduction of neutrophils to the wound site were considered to have anti-inflammatory properties in this system. All larvae were assessed for viability and morphological integrity.
To assess the immunomodulatory effects of the thalidomide analogs, the mpo:gfp transgenic zebrafish line (Renshaw et al., Blood 2006, 108:3976-3978) was utilized because it is an accepted model of inflammation, and can be used to test the effect of anti-inflammatory agents. These embryos express GFP-tagged myeloperoxidase, where green fluorescence marks the neutrophil cells involved in the inflammatory response process, for example following injury, from 72 hours post fertilization (Renshaw et al., 2006; Mahony et al., 2013; Beedie et al., Oncotarget 2016, 7(22):33237). At 72 hpf the dorsal third of the tail fin was removed and the embryos were immersed in the desired compound or vehicle (FIGS. 5A-5C). The embryos were examined for the effect on the inflammatory response quantified as an induction and migration of neutrophils to the wound site 24 hours later.

[2] = tested on: fli1:EGFP zebrafish embryos (intersegmental vessel growth); experiment: fli1:EGFP zebrafish embryo angiogenesis assay; assay type: in vivo; parameters: fli1:EGFP angiogenesis n (survived/tested): concentration or dose not given beside the values; details: for minimal effective concentration: Danio rerio, lowest concentration producing an effect, compounds not producing an effect shown at the highest evaluated concentration; for fli1:EGFP angiogenesis n (survived/tested): embryos alive after 24 hours of exposure
From the text: as §1
To determine if the thalidomide analogs had any effect on angiogenesis, fli1:EGFP embryos (Lawson and Weinstein, Developmental Biology 2002, 248:307-318) were exposed to either vehicle or a compound of interest, over a range of concentrations and over a range of time points starting at 24 hpf. Images were obtained at three time points over 24 hours after exposure to the compounds. The best concentration and time point were selected. CPS49, a compound that is chemically and structurally similar to thalidomide breakdown products, and is tetrafluorinated (which adds stability and bioactivity to the compound) and that causes severe limb defects in chicken embryos, was used as a positive control. The embryos were imaged at 48 hpf (FIGS. 3A3L) and analyzed for both vessel formation and the extent of growth of the vasculature. […]

[3] = tested on: RAW 264.7 cells; experiment: Cell viability (CellTiter 96 AQueous One) of LPS-challenged RAW 264.7 cells; assay type: cell-based, mouse; parameters: key: NS=not significant; a “+” sign=anti-inflammatory or increased cell numbers; a “−” sign=cell toxicity or pro-inflammatory
Procedure: The CellTiter 96® AQueous One Solution Cell Proliferation Assay (Promega, Madison, Wis.) is routinely used as an assay of cell proliferation, and was used according to the manufacturer's recommendations. Changes in cellular health status are determined by use of indirect measures related to the formation of a colored tetrazolium dye product that can be measured spectrophotometrically at 490 nm λ. […] Optical densities (expressed as O.D.s) were measured after various incubations.
(§2) RAW 264.7 cells obtained from ATCC (Manassas, Va., USA) were grown in DMEM media supplemented with 10% FCS, penicillin 100 μg/ml and streptomycin 100 μg/ml, and maintained at 37° C. and 5% CO2. Cells were seeded in 24 well plates and, 24 hours later, were utilized in studies. One hour prior to the initiation of any study, the seeding media was replaced with fresh media (1 mL), and the cells were allowed to equilibrate at 37° C. and 5% CO2.
(§3) RAW 264.7 cells were challenged with LPS (Sigma, St Louis, Mo.: serotype 055:B5) from at a final concentration of 30 or 60 ng/mL. This concentration of LPS in RAW 264.7 cells induces a sub-maximal rise in both TNF-alpha and nitrite levels without a loss in cellular viability. This sub-maximal rise is useful for assessing whether the addition of an experimental drug can either lower or further raise levels of TNF-α and nitrite. Twenty four hours following the addition of LPS, conditioned media was harvested and analyzed for quantification of secreted TNF-α protein and nitrite levels. Fresh media was replaced into the wells and cell viability was then assessed.
(§4) Thalidomide and analogs were prepared in tissue culture grade DMSO (Sigma). RAW 264.7 cells were pretreated with thalidomide, analogues or vehicle one hour prior to a challenge with LPS. The effects of various concentrations of thalidomide analogues were assessed. All compounds were synthesized to a chemical purity of >99.5%, as assessed by chemical characterization by a combination of 1H NMR, 13C NMR and GC/MS analyses (Bruker AC-300 spectrometer, together with elemental analyses (Atlantic Microlab, Inc., Norcross, Ga.).

[4] = tested on: TNF-α protein; experiment: TNF-α protein level (ELISA) in LPS-challenged RAW 264.7 cells; assay type: cell-based, mouse; parameters: key: NS=not significant; a “+” sign=anti-inflammatory or increased cell numbers; a “−” sign=cell toxicity or pro-inflammatory; details: LPS 30 or 60 ng/mL, 24 h
Procedure: Nitrite levels in the culture media were measured by use of the Griess Reagent System (Promega, Madison, Wis.), following the manufacturer's protocol. The O.D. of unknown samples was read at 520 nm λ, compared to a sodium nitrite standard curve (1.5 μM to 100 μM) and nitrite measured media concentrations expressed as μM units. As the lowest nitrite concentration on the Griess Reagent System standard curve was 1.5 μM, this was chosen as the effective cutoff for defining measurable nitrite concentrations. TNF-α protein levels were measured by use of an ELISA specific for mouse TNF-α protein (BioLegend, San Diego, Calif.) and are expressed as a % change from their appropriate control or as pg/ml.
as §2, §3, §4

Structure (SMILES) | minimal effective concentration [1] [µg/mL] | mpo:GFP inflammation n (survived/tested) [1] | minimal effective concentration [2] [µg/mL] | fli1:EGFP angiogenesis n (survived/tested) [2] | further results
O=C1NC(=S)CCC1N1C(=O)c2ccccc2C1=S (stereo not drawn) [Compound 2, 2,3-dihydro-2-(2-oxo-6-thioxo-3-piperidinyl)-3-thioxo-1H-isoindol-1-one] | 10 | 26/30 | 10 | 21/24 | anti-inflammatory activity (inhibition of neutrophil migration) ([1]; in words): significant anti-inflammatory action
O=C1NC(=S)CCC1N1C(=O)c2cccc(O)c2C1=O (stereo not drawn) [Compound 14] | 10 | 14/24 | 10 | 7/23 | 
O=C1NC(=S)CCC1N1C(=O)c2ccc(O)cc2C1=O (stereo not drawn) [Compound 17] | 10 | 5/5 | 15 | 26/50 | 
CC(=O)Oc1ccc2c(c1)C(=O)N(C1CCC(=O)NC1=O)C2=O (stereo not drawn) [Compound 18] | 50 | 14/14 | 50 | 24/43 | 
CC(=O)Oc1ccc2c(c1)C(=O)N(C1CCC(=S)NC1=O)C2=O (stereo not drawn) [Compound 19] | 1 | 5/12 | 1 | 13/51 | 
O=C1CCC(N2C(=O)c3ccc(OCc4ccccc4)cc3C2=O)C(=O)N1 (stereo not drawn) [Compound 20] | 10 | 8/14 | 10 | 51/79 | 
Nc1ccc2c(=O)n(C3CCC(=O)NC3=O)c(=O)oc2c1 (stereo not drawn) [Compound 24] | 50 | 6/6 | 50 | 13/25 | 
Nc1cccc2c1CN(C1CCC(=S)NC1=O)C2=O (stereo not drawn) [Compound 30] | 10 | 10/10 | 10 | 4/8 | 
Nc1cccc2c1CN(C1CCC(=S)NC1=O)C2=S (stereo not drawn) [Compound 32] | 10 | 6/15 | 100 | 21/25 | Viability ([3]; 3 μM): NS; Viability ([3]; 10 μM): NS; Viability ([3]; 30 μM): NS; TNF-α ([4]; 3 μM): +; TNF-α ([4]; 10 μM): +; TNF-α ([4]; 30 μM): +
O=C1CCC(N2Cc3ccc([N+](=O)[O-])cc3C2=O)C(=O)N1 (stereo not drawn) [Compound 33] | 10 | 4/15 | 100 | 15/21 | 
Nc1ccc2c(c1)C(=O)N(C1CCC(=O)NC1=O)C2 (stereo not drawn) [Compound 34] | 100 | 7/9 | 100 | 13/20 | 
CC(C)Nc1ccc2c(c1)C(=O)N(C1CC=CNC1=O)C2 (stereo not drawn) [Compound 46, 6-Isopropylamino-2-(3,4-dihydro-2-pyridone-3-yl)phthalimidine] | 10 | 24/50 | 10 | 14/30 | 
O=C1CCC(N2Cc3ccccc3C2=O)C(=O)N1CN1C(=S)c2ccccc2C1=S (stereo not drawn) [Compound 51] | 1 | 4/11 | 200 | 7/25 | Viability ([3]; 1 μM): NS; Viability ([3]; 10 μM): NS; Viability ([3]; 30 μM): −; TNF-α ([4]; 1 μM): +; TNF-α ([4]; 10 μM): +; TNF-α ([4]; 30 μM): +; concentration at which anti-angiogenic activity was shown ([2]; exposure from 24 hpf, imaged at 48 hpf): 200 µg/mL
N=C1N/C(=N\C2CCC(=O)NC2=O)c2ccccc21 (stereo not drawn) [Compound 55] | 200 | 6/11 | 100 | 6/10 | 
N=C1c2ccccc2C(=O)N1C1CCC(=O)NC1=O (stereo not drawn) [Compound 56] | 10 | 7/8 | 10 | 9/19 | 
O=C1c2cccc([N+](=O)[O-])c2C(=O)N1c1nc2ccc(C(F)(F)F)cc2s1 [Compound 60] | 1 | 5/15 | 10 | 3/10 | 
